Data from the supplement of paper PMC4862054.
Values joined by “and” are separate entries in the source; they are usually repeats but may differ in a detail not shown here. Identical values can stand only once.

What was measured:
Conditions in all cases: incubation time: 72 h
BT-549 [1] = assay: normalised viability (% of control), CellTiter-Blue; higher = more viable cells (about 100 = DMSO control)
How it was run: (§1)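 Breast cancer cell lines were treated for 72 h in 384-well format and measured by CellTiter-Blue fluorescence at 560/590 nm. Results were normalised per plate to vehicle (100) and a positive kill control (0). The entry is normalised viability at a single listed concentration of the series.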

CAL-120 [2] = assay: as above
How it was run: as §1

CAL-148 [3] = assay: as above
How it was run: as §1

CAL-51 [4] = assay: as above
How it was run: as §1

CAL-85-1 [5] = assay: as above
How it was run: as §1

HDQ-P1 [6] = assay: as above
How it was run: as §1

MDA-MB-231 [7] = assay: as above
How it was run: as §1

MDA-MB-468 = assay: as above
How it was run: as §1

MFM-223 [8] = assay: as above
How it was run: as §1

SK-BR-3 = assay: as above
How it was run: as §1

BT-474 = assay: drug sensitivity score (DSS), CellTox Green (DSS (AUC-based score)); higher = stronger drug effect (viability inhibition or cytotoxicity); extreme values may be limits of the assay
How it was run: (§2)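 Compound was dispensed into 384-well plates at 5 concentrations in 10-fold steps spanning a 10,000-fold range chosen for each compound, and 20 µl of breast cancer cell suspension was added before 72 h of incubation. CellTox Green fluorescence was read at 485/520 nm, followed by CellTiter-Glo luminescence after 10 min at room temperature. Values on each plate were normalised to 0.1 % DMSO and a positive kill control. The drug sensitivity score came from the area under the fitted dose-response curve.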

BT-549 [9] = assay: as above
How it was run: as §2

CAL-120 [10] = assay: as above
How it was run: as §2

CAL-148 [11] = assay: as above
How it was run: as §2

CAL-51 [12] = assay: as above
How it was run: as §2

CAL-85-1 [13] = assay: as above
How it was run: as §2

DU-4475 = assay: as above
How it was run: as §2

HCC1143 = assay: as above
How it was run: as §2

HCC1599 = assay: as above
How it was run: as §2

HCC1937 = assay: as above
How it was run: as §2

HDQ-P1 [14] = assay: as above
How it was run: as §2

Hs578T = assay: as above
How it was run: as §2

MDA-MB-231 [15] = assay: as above
How it was run: as §2

MDA-MB-436 = assay: as above
How it was run: as §2

MFM-223 [16] = assay: as above
How it was run: as §2

CC1(C)CCC(c2ccc(Cl)cc2)=C(CN2CCN(c3ccc(C(=O)NS(=O)(=O)c4ccc(N[C@H](CCN5CCOCC5)CSc5ccccc5)c(S(=O)(=O)C(F)(F)F)c4)cc3)CC2)C1 [Navitoclax]
normalised viability [%]
Conditions | BT-549 [1] | CAL-51 [4] | CAL-85-1 [5] | CAL-120 [2] | CAL-148 [3] | HDQ-P1 [6] | MDA-MB-231 [7] | MDA-MB-468 | MFM-223 [8] | SK-BR-3
3 nM | – | 112 | 84.1 | – | 85.1 | 81.4 | – | – | – | –
10 nM | 80.7 | – | – | 69.9 | – | – | 74.7 | 91.9 | 77.2 | 83.8
30 nM | – | 104 | 81.1 | – | 88.2 | 79.7 | – | – | – | –
100 nM | – | 101 | 85.3 | – | 89.2 | 79.3 | – | – | – | –
1000 nM | 79.7 | – | – | 64.7 | – | – | 55.7 | 81.6 | 68.7 | 86
10000 nM | 78.1 | – | – | 30.5 | – | – | 30.6 | 71.2 | 40.6 | 73.2

Conditions | drug sensitivity score
BT-474 | 2.28
BT-549 [9] | 0
CAL-51 [12] | 8.56
CAL-85-1 [13] | 3.45
CAL-120 [10] | 10.9
CAL-148 [11] | 4.49
DU-4475 | 0
HCC1143 | 0
HCC1599 | 0
HCC1937 | 0
HDQ-P1 [14] | 17.2
Hs578T | 0
MDA-MB-231 [15] | 21.5
MDA-MB-436 | 0
MFM-223 [16] | 1.23

Cc1cn(-c2cc(NC(=O)c3ccc(C)c(Nc4nccc(-c5cccnc5)n4)c3)cc(C(F)(F)F)c2)cn1 [Nilotinib]
normalised viability
Conditions | BT-549 [1] | CAL-51 [4] | CAL-85-1 [5] | CAL-120 [2] | CAL-148 [3] | HDQ-P1 [6] | MDA-MB-231 [7] | MDA-MB-468 | MFM-223 [8] | SK-BR-3
3 nM | – | 107% and 112% | 87% and 87.5% | – | 77% and 88.5% | 92.5% and 86.2% | – | – | – | –
10 nM | 97.3% and 88.6% | – | – | 78% and 85.4% | – | – | 87.6% and 94.3% | 100% and 102% | 92.3% and 91.1% | 104% and 94.5%
30 nM | – | 108% and 106% | 81.8% and 80.2% | – | 86.2% and 93.4% | 87.3% and 81.5% | – | – | – | –
100 nM | – | 101% and 111% | 85.7% and 90.7% | – | 90.8% and 95.3% | 95.3% and 83.1% | – | – | – | –
1000 nM | 71.5% and 73.6% | – | – | 82.5% and 88% | – | – | 71.3% and 75.2% | 108% and 106% | 98.9% and 91% | 100% and 96.5%
10000 nM | 43.4% and 40.7% | – | – | 90.2% and 92.4% | – | – | 57.3% and 45.2% | 97.5% and 108% | 91.7% and 89.4% | 90.4% and 94.3%

Conditions | drug sensitivity score
BT-474 | 0
BT-549 [9] | 1.71
CAL-51 [12] | 0
CAL-85-1 [13] | 0
CAL-120 [10] | 0
CAL-148 [11] | 0
DU-4475 | 0
HCC1143 | 0
HCC1599 | 0
HCC1937 | 0
HDQ-P1 [14] | 0
Hs578T | 0.546
MDA-MB-231 [15] | 3.55
MDA-MB-436 | 0
MFM-223 [16] | 0

O=C(CCCCCCC(=O)Nc1ccccc1)NO [Vorinostat]
Conditions | normalised viability
BT-549 [1], 10 nM | 108% and 102%
BT-549 [1], 1000 nM | 89.2% and 82.3%
BT-549 [1], 10000 nM | 48% and 33.2%
CAL-51 [4], 3 nM | 113% and 102%
CAL-51 [4], 30 nM | 102%
CAL-51 [4], 100 nM | 106% and 97.5%
CAL-85-1 [5], 3 nM | 91% and 103%
CAL-85-1 [5], 30 nM | 85.7% and 96.9%
CAL-85-1 [5], 100 nM | 100% and 106%
CAL-120 [2], 10 nM | 92.3% and 99.7%
CAL-120 [2], 1000 nM | 65.1% and 68.3%
CAL-120 [2], 10000 nM | 11.5% and 18.7%
CAL-148 [3], 3 nM | 78% and 95.3%
CAL-148 [3], 30 nM | 90.2% and 100%
HDQ-P1 [6], 3 nM | 99.4% and 88.7%
HDQ-P1 [6], 30 nM | 97.2% and 84.3%
HDQ-P1 [6], 100 nM | 95.6% and 87.5%
MDA-MB-231 [7], 10 nM | 99.4% and 89.5%
MDA-MB-231 [7], 1000 nM | 88.3% and 84.1%
MDA-MB-231 [7], 10000 nM | 13.9% and 12.9%
MDA-MB-468, 10 nM | 105%
MDA-MB-468, 1000 nM | 80.6% and 76%
MDA-MB-468, 10000 nM | 32.5% and 40.6%
MFM-223 [8], 10 nM | 97.4% and 103%
MFM-223 [8], 1000 nM | 84% and 74%
MFM-223 [8], 10000 nM | 19.7% and 18.4%
SK-BR-3, 10 nM | 104% and 95.2%
SK-BR-3, 1000 nM | 54.3% and 45.8%
SK-BR-3, 10000 nM | 3.79% and 4.28%

Conditions | drug sensitivity score
BT-474 | 2.68
BT-549 [9] | 0.875
CAL-51 [12] | 6.5
CAL-85-1 [13] | 0
CAL-120 [10] | 2.58
CAL-148 [11] | 1.45
DU-4475 | 0
HCC1143 | 1.23
HCC1599 | 0
HCC1937 | 0
HDQ-P1 [14] | 0
Hs578T | 4.59
MDA-MB-231 [15] | 8.86
MDA-MB-436 | 0
MFM-223 [16] | 0
